The record followed here is patent US20120277312A1, “Ethylgallate and Related Compounds as a Treatment for Sepsis and Septic Shock” (priority 2009, published 2012).

The subject of assay [1] is lysozyme-induced myocardial depression. Briefly: Lysozyme-induced myocardial depression, in-vitro experiments. As to conditions: previous in-vitro experiments. From the text: Usually, when one increases the blood pressure in septic shock, there is the potential for stroke-volume and cardiac out to fall, since the heart has to pump against a greater load. Particularly, in septic shock, cardiac function is depressed.

Assay [2] relates to POX-induced vasodilation in carotid and superior mesenteric arterial preparations. The assay is described as follows: Peroxacetic acid (POX)-induced vasodilation in carotid and superior mesenteric arterial preparations. On the set-up: species or system canine. From the text: POX is a hydroperoxide (slightly different from the molecule of hydrogen peroxide) that also may be released in septic shock by macrophages and inflammatory cells. […] However, the pathway by which POX caused vasodilation is much different than that caused by lysozyme. […] To some extent, therefore, the improvement in hemodynamics previously observed when ethyl-gallate was infused in our in-vivo study could have also been related to ethyl-gallate's inhibition of the POX pathway in addition to ethyl-gallate's inhibitory-effect on lysozyme mediated pathways.
The only similarity found between lysozyme and POX is that POX's mechanism of action is also independent of the endothelium and nitric oxide formation, since we could not prevent POX's vasodilatory effect by removal of the endothelium or by nitric oxide inhibition. In contrast to lysozyme, POX seems to cause vasodilation is by activation of an enzyme in the vascular tissue called prostaglandin H synthase (PHS). PHS has an important mechanism of action, in that after activation by hydroperoxides (such as POX), it can in turn activate the cyclooxygenase pathway leading to vasodilation.

`CCOC(=O)c1cc(O)c(O)c(O)c1` [ethyl gallate]: the “prevention of lysozyme-induced myocardial depression” value in assay [1] is “prevents”. Besides, the “inhibition of vasodilation caused by POX” value in assay [2] is given as “inhibited”.
